{"source": "patent US9872875B2", "about": "“Component and method for treating viral disease” (Institut Pasteur of Shanghai, Chinese Academy of Sciences, priority 2012, dated 2018)", "key": {"[1]": {"system": "EV71 clinical isolate (EV71 FY 573)", "test": "EV71 clinical isolate replication in RD cells, viral load by quantitative RT-PCR", "assay_type": "cell-based, Enterovirus 71", "procedure": "RD cells were infected with EV71 clinical isolate (EV71 FY 573) in different E02 concentrations, at the MOI (multiplicity of infection) of 0.1. At 46 h post infection, viral RNA in culture supernatant was extracted, and the relative EV71 viral load was determined by quantitative RT-PCR. Procedures are detailed as follows:\n(1) Cell seeding: 24 h prior to infection, RD cells were seeded in 96-well cell culture plates, 5×10^4 cells per well.\n(2) Infection: • a. Virus pre-incubated with drug: virus stock solution was diluted to 5×10^4 TCID50/ml with DMEM and dispensed to 96-well plates at 100 μl per well, and 11 μl of E02 dissolved in DMEM at corresponding concentration or DMEM was added, and incubated at 37° C. for 1 h; • b. Cells pre-incubated with drug: cell culture medium was removed from 96-well plates, each well was added 100 μl of DMEM, then added 11 μl of E02 solution at corresponding concentration or DMEM, and incubated at 37° C. for 1 h; • c. After 1 h incubation, drug was discarded from cell culture plates, 111 μl of virus pre-incubated with drug was transferred to cell culture plates, and incubated at 37° C. for 1 h; • d. After incubation, the supernatant was discarded, cells were washed twice with 50 μl of DMEM, each well was added 180 μl of DMEM containing 2% FBS, 20 μl of E02 solution at corresponding concentration or DMEM. Cell culture plates were placed in 37° C., 5% (v/v) carbon dioxide incubator for incubation.\n(3) Harvesting virus and RNA extraction: after infection, cells were cultured for 46 h, 140 μl of supernatant was transferred to 96-deep well plates, viral RNA extraction was performed using viral RNA extraction kit (QIAGEN QIAamp Viral RNA Mini Kit, cat #52906) according to standard operating procedures of the kit.\n(4) Viral load measurements: EV71 5′UTR gene was detected using ABI Taqman one-step RT-PCR kit (ABI TaqMan® One-Step RT-PCR, cat #4309169) of ABI 7900HT 384-well plates PCR system. EV71 5′UTR quantitative RT-PCR thermal cycling program (Taqman);\n(5) PCR CT values were converted to viral load using PCR standard curves (standard curves were obtained by CT values determined by performing RT-PCR on RNA extracted from viruses serially diluted with defined titers at 10-fold)."}, "[2]": {"system": "EV71 M.A.V. (mouse-adapted strain)", "test": "EV71 M.A.V. TCID50 in RD cells", "assay_type": "cell-based, Enterovirus 71", "text": "EV71 M.A.V. in 10-fold serial dilutions was used to infect RD cells at different E02 concentrations. After cultured for 3-4 days, CPE was observed under optical microscope, and stained with crystal violet, to calculate 50% tissue culture infective dose. Specific steps are similar to that for testing corresponding TCID50 of Example 1."}, "[3]": {"system": "EV71 clinical isolate SH-RS", "test": "EV71 SH-RS replication in RD cells, quantitative RT-PCR", "assay_type": "cell-based, Enterovirus 71", "conditions": "MOI 0.1, 46 h", "procedure": "RD cells were infected with EV71 SH-TS or SH-RS at different E02 concentrations, at the MOI of 0.1. After cultured for 46 h, viral RNA in culture supernatant was extracted. Relative EV71 viral load was determined by quantitative RT-PCR. See Example 1 for specific procedures of quantitative RT-PCR."}, "[4]": {"system": "EV71 clinical isolate SH-TS", "test": "EV71 SH-TS PFU in RD cells", "assay_type": "cell-based, Enterovirus 71", "conditions": "Enterovirus A, 168 h, 5~7 days, read-out: EC50 to reduce EV71 SH-TS PFU in RD cells", "procedure": "(§1) RD cells cultured in 12-well plates were infected with EV71 SH-TS or SH-RS at different E02 concentrations. After cultured for 5˜7 days, cells were stained and plaque-forming units were calculated. Same procedure is as detailed in “3. E02 reduces EV71 plaque forming units in RD cells” of Example 1."}, "[5]": {"system": "EV71 clinical isolate SH-RS", "test": "EV71 SH-RS PFU in RD cells", "assay_type": "cell-based, Enterovirus 71", "conditions": "Enterovirus A, 168 h, 5~7 days, read-out: EC50 to reduce EV71 SH-RS PFU in RD cells", "procedure": "as §1"}, "P2X2 receptor": {"target": "T1, P2X2 receptor (Homo sapiens, UniProt Q9UBL9)", "T1 sequence (Q9UBL9 1-471)": "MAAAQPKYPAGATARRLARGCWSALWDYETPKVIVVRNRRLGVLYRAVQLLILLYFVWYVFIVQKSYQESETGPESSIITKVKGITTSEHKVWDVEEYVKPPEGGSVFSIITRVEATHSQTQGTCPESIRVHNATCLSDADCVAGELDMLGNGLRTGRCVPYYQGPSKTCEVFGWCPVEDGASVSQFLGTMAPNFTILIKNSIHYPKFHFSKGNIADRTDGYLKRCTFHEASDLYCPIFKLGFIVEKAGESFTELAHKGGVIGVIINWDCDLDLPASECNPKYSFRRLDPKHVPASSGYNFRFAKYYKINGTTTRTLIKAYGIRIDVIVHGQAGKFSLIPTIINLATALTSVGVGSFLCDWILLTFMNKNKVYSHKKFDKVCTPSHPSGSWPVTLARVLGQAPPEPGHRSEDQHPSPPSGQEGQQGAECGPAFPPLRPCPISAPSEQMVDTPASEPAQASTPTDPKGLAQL", "conditions": "cited from earlier work"}, "P2X4 receptor": {"target": "T2, P2X4 receptor (Homo sapiens, UniProt Q99571)", "T2 sequence (Q99571 1-388)": "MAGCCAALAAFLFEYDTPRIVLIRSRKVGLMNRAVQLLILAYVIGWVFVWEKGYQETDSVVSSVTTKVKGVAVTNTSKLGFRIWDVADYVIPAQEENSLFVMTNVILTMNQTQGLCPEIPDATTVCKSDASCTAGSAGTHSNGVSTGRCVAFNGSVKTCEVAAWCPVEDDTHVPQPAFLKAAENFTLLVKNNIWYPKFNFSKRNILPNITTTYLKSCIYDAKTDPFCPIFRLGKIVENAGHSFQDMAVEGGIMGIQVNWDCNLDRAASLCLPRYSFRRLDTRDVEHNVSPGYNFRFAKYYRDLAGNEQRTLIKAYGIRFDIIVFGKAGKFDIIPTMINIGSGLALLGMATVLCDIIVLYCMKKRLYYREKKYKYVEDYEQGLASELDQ", "conditions": "Table 8, antagonists; cited from earlier work"}}, "note": "Read-outs that look alike come from different tables or passages of the source.", "data": [{"smiles": "Cc1ccc(C(=O)Nc2ccc(S(=O)(=O)O)c3cc(S(=O)(=O)O)cc(S(=O)(=O)O)c23)cc1NC(=O)c1cccc(NC(=O)Nc2cccc(C(=O)Nc3cc(C(=O)Nc4ccc(S(=O)(=O)O)c5cc(S(=O)(=O)O)cc(S(=O)(=O)O)c45)ccc3C)c2)c1", "note": "[E02, Suramin Sodium]", "values": [{"measurement": "concentration at which EV71 replication is reduced 10-fold", "setting": "[1]; EV71 FY 573, RD cells, 46 h", "value": 3.44, "unit": "μM"}, {"measurement": "concentration at which EV71 replication is reduced 100-fold", "setting": "[1]; EV71 FY 573, RD cells, 46 h", "value": 5.19, "unit": "µM"}, {"measurement": "concentration at which EV71 replication is reduced 1,000-fold", "setting": "[1]; EV71 FY 573, RD cells, 46 h", "value": 6.45, "unit": "µM"}, {"measurement": "concentration at which EV71 replication is reduced 10,000-fold", "setting": "[1]; EV71 FY 573, RD cells, 46 h", "value": 7.63, "unit": "µM"}, {"measurement": "EC50", "setting": "[1]; Enterovirus A, EV71, RD, 46 h, read-out: EC50 (50% effective concentration) for inhibiting EV71 replication in RD cells", "value": 6.93, "unit": "µM"}, {"measurement": "EC50", "setting": "[1]; Enterovirus A, EV71, RD cells, summary over RT-PCR, TCID50 and PFU tests, read-out: EC50 that inhibits EV71 clinical isolate (summary of Examples 1-3)", "value": "< 6.93", "unit": "µM"}, {"measurement": "inhibition of EV71 mouse adapted strain infection of RD cells", "setting": "[2]; 10 μM of E02", "value": "completely inhibit"}, {"measurement": "EC50", "setting": "[2]; Enterovirus A, EV71, RD, read-out: EC50 to reduce EV71 M.A.V. TCID50 in RD cells", "value": 8.07, "unit": "µM"}, {"measurement": "concentration reducing EV71 replication by 10-fold", "setting": "[3]", "value": 4.41, "unit": "μM"}, {"measurement": "concentration reducing EV71 replication by 1000-fold", "setting": "[3]", "value": 16.29, "unit": "µM"}, {"measurement": "EC50", "setting": "[4]", "value": 2240, "unit": "nM"}, {"measurement": "EC50", "setting": "[5]", "value": 3.47, "unit": "µM"}, {"measurement": "P2X receptors 2", "setting": "P2X2 receptor", "value": "+ (key: −: no activity; +: inhibitory concentration >300 nM; ++: inhibitory concentration = 10~300 nM; +++: inhibitory concentration <10 nM)"}, {"measurement": "P2X receptors 4", "setting": "P2X4 receptor", "value": "−"}]}, {"smiles": "Cc1nc(N=Nc2ccc(S(=O)(=O)O)cc2S(=O)(=O)O)c(COP(=O)(O)O)c(C=O)c1O", "note": "[PPADS, pyridoxal-phosphate-6-azophenyl-2′, 4′-disulphonic acid]", "values": [{"measurement": "EC50", "setting": "[1]; EV71 FY 573, MOI 0.1, 46 h, viral RNA in supernatant, read-out: EC50 (50% effective concentration) for inhibiting EV71 replication in RD cells", "value": 18.9, "unit": "µM"}, {"measurement": "P2X receptors 2", "setting": "P2X2 receptor; Table 8, antagonists", "value": "++ (++: inhibitory concentration = 10~300 nM)"}, {"measurement": "P2X receptors 4", "setting": "P2X4 receptor", "value": "−"}]}]}
